One data set relates to TGEV. The class given is cell-based, transmissible gastroenteritis virus of swine. The settings on record: read-out: EC50, TGEV.
For the next data set, the system named is SARS-V. The class given is cell-based, SARS coronavirus. The note with it: read-out: EC50, SARS-V.
The subject of a further data set is FIPV. The format is cell-based, feline infectious peritonitis virus. The note with it: read-out: EC50, FIPV.
A further data set deals with PfluV 2. The note with it: cited from earlier work; for EC50: read-out: EC50, PfluV 2, MTT method. In general terms: Tetrazolium assays rely on reduction of a dye to a coloured formazan, in cell work by metabolically active cells.
A further data set concerns DFV. The settings on record: read-out: EC50, DFV; MTT method; cited from earlier work.
Data set [1] concerns RSV. The note with it: read-out: EC50, RSV; MTT method; cited from earlier work.
The subject of data set [2] is FluV A. The settings on record: read-out: EC50, FluV A; MTT method; cited from earlier work.
The test system of a further data set is HIV-1. The note with it: read-out: EC50, HIV-1; MTT method; cited from earlier work.
Another data set relates to CDV. The note with it: cited from earlier work; for EC50: read-out: EC50, CDV, plaque reduction method. (Plaques are areas of infected cells; plaque reduction assays count them against a control.)
A further data set concerns MDCK cells. The settings on record: cited from earlier work.
The test system of the next data set is HMV-2. The settings on record: read-out: IC50, cytotoxicity HMV-2; MTT method; cited from earlier work.
The test system of the next data set is RSV-B (SM-61-48). The settings on record: read-out: EC50, RSV-B (SM-61-48); MTT method; data from one experiment; cited from earlier work.
The subject of another data set is Vero. The settings on record: read-out: IC50, cytotoxicity Vero; MTT method; cited from earlier work.
For another data set, the system named is MDCK. The settings on record: read-out: IC50, cytotoxicity MDCK; MTT method; cited from earlier work.
The test system of a further data set is FluV A (H1N1/PR8). The settings on record: cited from earlier work.
For another data set, the system named is HEp-2. The settings on record: read-out: IC50, cytotoxicity HEp-2; MTT method; cited from earlier work.
Data set [3] has as its system RSV. The note with it: cited from earlier work.
In data set [4] the test system is ortho- and paramyxoviruses, herpesviruses and retroviruses (HIV-1 and 2). The note with it: cited from earlier work.
The test system of data set [5] is RSV-A. The settings on record: cited from earlier work.
The test system of data set [6] is RSV-A. The note with it: read-out: EC50 against RSV-A; compound present 1.5–3 hours; cited from earlier work.
Data set [7] relates to FluV. The settings on record: data not shown; cited from earlier work.
The test system of data set [8] is RSV. The note with it: HeLa cells; compound after virus adsorption; cited from earlier work.
Data set [9] has as its system FluV-A. The settings on record: read-out: EC50 against FluV-A; compound present 1.5–3 hours; cited from earlier work.
Data set [10] relates to FluV-A. The note with it: cited from earlier work.
The subject of data set [11] is FluV A binding to MDCK cells. The note with it: 8–200 μM of compound during 1.5 hour incubation at 37 °C, moi 1; cited from earlier work.
Data set [12] concerns FluV A. The settings on record: read-out: EC50 against FluV A; cited from earlier work.
Data set [13] concerns syncytium formation between MOLT-4 cells (uninfected cells) and MOLT-4/IIIb cells (infected cells). The settings on record: MOLT-4 and MOLT-4/IIIb cells; cited from earlier work.
The next data set concerns HIV. The note with it: read-out: EC50, anti-HIV, MAGI test; HeLa CD4/LTR-β-Gal cells; cited from earlier work.
Another data set concerns CD4. The note with it: mouse antibody; cited from earlier work.
The test system of the next data set is CXCR4. The note with it: monoclonal mouse antibody; cited from earlier work.
The next data set relates to gp-120. The note with it: polyclonal mouse antibody; cited from earlier work.
Data set [14] relates to FluV. The settings on record: given either orally or intraperitoneally; cited from earlier work.

Read-outs that look alike come from different tables or passages of the source. A value given as a limit tells only on which side of the number the result lay.

Regarding K12[(VO)3(PW9O34)2]nH2O [PM-1213], the EC50 – broadly, the concentration that produces a half-maximal response – in the data set with TGEV is 1.7 ± 1 µM; in the data set with SARS-V, 0.47 ± 0.14 µM; with FIPV, over 10.5 µM.
K7[BVW11O40] [PM-47]: the EC50 was 67.1 µM in the data set on PfluV 2; 10.5 ± 6.9 µM in the data set on DFV; 29 µM with RSV [1]; 11.5 ± 0.6 µM in the data set with FluV A [2]; 0.03 ± 0.01 µM with HIV-1; 6 ± 0.6 µM with CDV.
In the case of K12[(VO)3(AsW9O33)2]12H2O [PM-1207], the EC50 with TGEV was determined as 1.9 ± 1.4 µM; with SARS-V, 0.9 ± 0.24 µM; with FIPV, 0.09 ± 0.04 µM.
The like results for K12[(VO)3(BiW9O33)2]29H2O [PM-1208] were, in that order, 2 ± 1.8 µM, 2.7 ± 0.6 µM and over 3.6 µM.
With `NC(=O)c1ncn([C@@H]2O[C@H](CO)[C@@H](O)[C@H]2O)n1` [Ribavirin, reference compound], the EC50 in the data set on PfluV 2 was 14 ± 4.8 µM; with DFV it was over 100 µM; with RSV-B (SM-61-48) it was 1.6 µM; with RSV [1] it was 3.9 ± 3.1 µM; in the data set with FluV A [2], 5 ± 2.8 µM; in the data set on CDV, 74 ± 35 µM. Further, the “Percent viability of cells” value is given as 107.2 ± 1.7% with MDCK cells (single compound at 100 μM, untreated cells = 100%); 104.8 ± 3.8% in the data set on MDCK cells (single compound at 200 μM); 102.8 ± 4.1% in the data set on MDCK cells (single compound at 400 μM). Further, the IC50 (as a rule, the concentration that gives 50% inhibition) was over 100 µM with HMV-2, 100 µM with Vero, over 200 µM in the data set with MDCK and 52.7 µM in the data set on HEp-2. Also, the “appearance of lungs of infected mice” value in the data set with FluV A (H1N1/PR8) (40 mM ribavirin alone, data not shown) was “swollen and reddened due to congestion”. The “mice survived on the 9th day” value in the data set on FluV A (H1N1/PR8) (80 mM ribavirin aerosol every 12 hours for 4 days) is reported as 60%. The “survival at 14 days after the infection” value with FluV A (H1N1/PR8) (80 mM ribavirin alone) was 30%.
[Pri2NH2]5[PTiW11O40] [PM-520]: the EC50 with PfluV 2 was 23 ± 2.4 µM; in the data set with DFV, 11.7 ± 7.1 µM; with RSV [1], 0.74 ± 0.6 µM; in the data set on FluV A [2], 45 ± 26 µM; in the data set on TGEV it was 1.4 ± 1.3 µM; in the data set on SARS-V, 4.9 ± 1.4 µM. The figures for the half-maximal effective concentration (EC50) in the data set on HIV-1, in the data set on FIPV and in the data set with CDV were 2 ± 0.5 µM, 0.76 ± 0.5 µM and 7.4 ± 0.4 µM, respectively.
For the compound “(NBu4)4(PriNH3) [PTi2W10O38(O2)2]2H2O [PM-803]”, the results for the EC50 with TGEV and with FIPV were 0.34 ± 0.3 µM and over 21 µM, respectively.
On to K5[SiVW11O40] [PM-43], for which the “antiviral activity against PfluV 2” value with PfluV 2 was “did not have antiviral activities”. Moreover, the concentration giving a half-maximal response (EC50) with PfluV 2 was over 100 µM; in the data set on DFV it was 10.7 ± 6.7 µM; with RSV [1], 1.6 µM; in the data set with FluV A [2], 8.4 ± 6.5 µM; with HIV-1, 0.3 ± 0.12 µM; in the data set on CDV, 7.5 ± 1 µM.
Regarding “[NH4]12H(BiW9O33)3Bi6(OH)3(H2O)3V4H10]25H2O [PM-1210]”, the EC50 in the data set on TGEV is 1.6 ± 1.1 µM; in the data set with SARS-V, 0.76 ± 0.3 µM; in the data set on FIPV, 0.74 ± 0.4 µM.
On to [Na16Fe4(H2O)2(P2W15O56)2]nH2O [HS-054], for which the half-inhibitory concentration (IC50) is over 200 µM in the data set with HMV-2, 50 µM with Vero, over 200 µM in the data set with MDCK and 88 µM in the data set with HEp-2. For the same compound, the EC50 in the data set on RSV-B (SM-61-48) is 7.8 µM.
Regarding “Na7H9{Eu3O(OH)3(H2O)3}2Al2(Nb6O19)5}47H2O [PM-802]”, the concentration giving a half-maximal response (EC50) is 0.5 ± 0.5 µM with TGEV, over 50 µM in the data set with SARS-V and 0.03 ± 0.01 µM in the data set on FIPV.
Consider [(Me3NH)8Si2W18Nb6O77]nH2O [HS-106], for which the half-maximal inhibitory concentration (IC50) in the data set on HMV-2 is 20.7 µM; in the data set on Vero it was 148 µM; in the data set with MDCK, over 200 µM; in the data set on HEp-2, over 200 µM. The EC50 in the data set with RSV-B (SM-61-48) was 4.5 µM. Further, in the data set on RSV [3], the anti-RSV activity result is “most potent and selective anti-RSV activity”. Besides, the antiviral activity result in data set [4] is given as “broad spectrum antiviral activity”.
For [K10Fe4(H2O)2 (PW9O34)2]nH2O [HS-058], the 50% inhibitory concentration (IC50) in the data set with HMV-2 was 50 µM; with Vero, 50 µM; with MDCK, over 200 µM; in the data set with HEp-2, over 200 µM. For the same compound, the “Inhibition of RNA and protein synthesis” value in the data set with RSV-A [5] and with FluV-A [10] was “Probably no” throughout. For the same compound, the “Inhibition of fusion of virus envelope and cell membrane” value with RSV-A [5] is reported as “Unclear”. Further, the EC50 was 3.1 µM with RSV-B (SM-61-48), over 20 µM with RSV-A [6] and over 31 µM in the data set with FluV-A [9]. The “concentration inhibiting hemolysis of chicken erythrocytes by FluV” value in the data set with FluV [7] is 58 µM. The “concentration inhibiting syncytium formation of RSV” value in the data set on RSV [8] is 8.5 µM. In addition, in the data set with FluV-A [10], the “Inhibition of fusion between infected and uninfected cells” value is listed as “Unclear”.
As for K9H6(Ge2Ti6W18O77)16H2O [PM-504], in data set [11], the “inhibition of the binding of FluV to MDCK cells (FACS)” value is “inhibited the binding”. In addition, the concentration for a half-maximal effect (EC50) in the data set on TGEV is 1.4 ± 0.5 µM; in the data set with FluV A [12], 1.3 µM; in the data set on SARS-V, 3.5 ± 2.4 µM; in the data set with FIPV, 0.4 ± 0.3 µM.
Turning to [Et2NH2]7[PTi2W10O40] [PM-518], the EC50 is 53 ± 39 µM in the data set on PfluV 2; 36.8 ± 3 µM with DFV; 26.5 µM in the data set with RSV [1]; 62 ± 27 µM with FluV A [2]; 2.1 ± 1.1 µM in the data set with TGEV; over 50 µM with SARS-V. The 50% effective concentration (EC50) is 2 ± 0.8 µM in the data set with HIV-1, over 32.9 µM in the data set with FIPV and over 50 µM in the data set on CDV. For the same compound, in the data set with CDV, the “antiviral activity against CDV” value is “did not have antiviral activities”.
As to K11H[(VO)3(SbW9O33)2]27H2O [PM-1002], the EC50 is 0.75 ± 0.05 µM in the data set with PfluV 2; 2 ± 1.4 µM with DFV; 0.75 ± 0.05 µM in the data set with RSV [1]; 4 ± 1.7 µM with FluV A [2]; 0.6 ± 0.4 µM in the data set with TGEV; 0.25 ± 0.07 µM in the data set with SARS-V. In addition, the EC50 was 0.03 ± 0.01 µM in the data set with HIV-1, 0.018 µM in the data set on HIV and 2.8 ± 1 µM with CDV. Also, the “inhibition of syncytium formation” value in [13] was “inhibited syncytium formation”.
For K12Nb6P2W12O62 [HS-158], the half-inhibitory concentration (IC50) was 53.7 µM with HMV-2, over 200 µM in the data set with Vero, 164 µM in the data set with MDCK and 82.7 µM with HEp-2. Moreover, the EC50 in the data set with RSV-B (SM-61-48) was 2.7 µM.
On to K10Na[(VO)3(SbW9O33)2]26H2O [PM-1001], for which the concentration giving a half-maximal response (EC50) in the data set on PfluV 2 is 1.1 ± 0.9 µM; with RSV [1] it was under 0.16 µM; with FluV A [2], 1.75 ± 1.6 µM; in the data set on TGEV, 0.14 ± 0.1 µM; in the data set on SARS-V it was 0.7 ± 0.4 µM; in the data set on HIV-1 it was 0.14 ± 0.17 µM. Besides, the EC50 with FIPV was 0.2 ± 0.1 µM; with HIV, 0.01 µM; in the data set on CDV, 5.7 ± 0.5 µM. In the data set on CD4, the “inhibition of binding of anti-CD4 antibody to its target molecule” value was “did not inhibit”. In the data set on CXCR4, the “inhibition of binding of anti-CRCX4 antibody to its target molecule” value was “did not inhibit”. Moreover, the “inhibition of binding of anti-gp120 antibody to gp-120” value with gp-120 is listed as “inhibited”. The “inhibition of syncytium formation” value in [13] is “inhibited syncytium formation”.
As for Ce2H[BW11Mn(H2O)O39] [HPB-2], the “therapeutic effect against FluV infection in mice” value in the data set with FluV [14] is “potent therapeutic effect”.

The values are drawn from publication PMC7118841 (Biomedicine & Pharmacotherapy, 2006).
